The record followed here is patent publication US20200339537A1, “NOVEL COMPOUND AS INHIBITOR AGAINST BINDING OF PF34 PROTEIN TO NEDD4-1 PROTEIN AND USE THEREOF” (ENHANCEDBIO INC., priority 2017, published 2020).

Assay [1] has as its target T1, binding between p34 protein and NEDD4-1 protein (Homo sapiens, UniProt P46934+Q9UHV2).
T1 construct: FLAG or 6xHis (known only from the detection antibodies)
T1 sequence (P46934 1-1319): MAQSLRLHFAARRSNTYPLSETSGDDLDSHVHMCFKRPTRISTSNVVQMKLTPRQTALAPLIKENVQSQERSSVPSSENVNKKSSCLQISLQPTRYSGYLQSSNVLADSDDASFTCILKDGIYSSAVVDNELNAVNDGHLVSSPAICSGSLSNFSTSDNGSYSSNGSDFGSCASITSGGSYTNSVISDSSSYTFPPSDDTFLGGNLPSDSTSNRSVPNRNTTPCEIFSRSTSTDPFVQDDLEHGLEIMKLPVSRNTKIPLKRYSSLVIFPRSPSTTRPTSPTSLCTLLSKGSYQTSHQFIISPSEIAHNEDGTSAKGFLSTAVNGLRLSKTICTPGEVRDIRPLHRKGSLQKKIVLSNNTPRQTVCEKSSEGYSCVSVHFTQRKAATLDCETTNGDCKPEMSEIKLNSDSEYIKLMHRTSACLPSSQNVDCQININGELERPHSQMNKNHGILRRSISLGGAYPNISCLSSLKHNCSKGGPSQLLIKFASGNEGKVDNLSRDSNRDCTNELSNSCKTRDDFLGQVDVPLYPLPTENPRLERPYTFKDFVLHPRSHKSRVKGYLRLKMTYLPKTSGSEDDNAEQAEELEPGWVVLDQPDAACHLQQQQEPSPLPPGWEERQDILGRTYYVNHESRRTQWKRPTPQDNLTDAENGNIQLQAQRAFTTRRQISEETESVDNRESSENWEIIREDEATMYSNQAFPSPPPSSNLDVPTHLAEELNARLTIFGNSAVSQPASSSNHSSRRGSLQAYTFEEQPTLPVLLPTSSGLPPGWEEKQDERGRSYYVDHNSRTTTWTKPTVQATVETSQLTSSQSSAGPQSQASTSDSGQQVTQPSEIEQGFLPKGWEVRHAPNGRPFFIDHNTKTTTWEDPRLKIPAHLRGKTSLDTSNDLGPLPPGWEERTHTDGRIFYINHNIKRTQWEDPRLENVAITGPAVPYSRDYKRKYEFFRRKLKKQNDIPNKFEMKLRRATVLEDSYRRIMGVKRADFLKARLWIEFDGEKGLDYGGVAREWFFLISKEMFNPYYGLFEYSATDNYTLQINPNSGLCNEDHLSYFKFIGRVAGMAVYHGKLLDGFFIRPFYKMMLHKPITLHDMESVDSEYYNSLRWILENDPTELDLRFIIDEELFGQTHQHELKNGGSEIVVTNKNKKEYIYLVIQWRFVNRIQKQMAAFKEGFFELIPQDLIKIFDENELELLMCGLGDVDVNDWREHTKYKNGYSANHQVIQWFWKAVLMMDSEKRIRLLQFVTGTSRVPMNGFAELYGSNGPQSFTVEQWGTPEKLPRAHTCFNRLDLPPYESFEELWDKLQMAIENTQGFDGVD
T1 sequence (Q9UHV2 1-236): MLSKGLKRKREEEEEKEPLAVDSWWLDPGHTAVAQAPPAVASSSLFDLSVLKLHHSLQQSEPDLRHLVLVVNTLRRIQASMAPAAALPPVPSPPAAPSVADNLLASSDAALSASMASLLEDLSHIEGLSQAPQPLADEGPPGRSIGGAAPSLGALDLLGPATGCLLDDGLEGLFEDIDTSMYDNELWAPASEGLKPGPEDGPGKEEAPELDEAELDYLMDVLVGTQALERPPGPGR
Kind of assay: Inhibitory activity on binding between p34 and NEDD4-1, FRET (HTRF) assay. The following applies: 1×PBS pH 7.4, 0.1% BSA, 2% DMSO, 384-well; for inhibition at 10 µM: pH 7.4, compound 10 μM. As for the experimental part:
Inhibitory activity of the compound on binding between p34 and NEDD4-1 was evaluated using p34 protein and NEDD4-1 protein based on the HTRF technology developed by Cisbio. In this assay, a fluorescence resonance energy transfer (FRET) signal was measured in the presence of terbium-labeled anti-FLAG antibody and d2-labeled anti-6XHis antibody. Experiments were performed in 384-well plates under a condition of 1×PBS pH 7.4, 0.1% BSA, and 2% DMSO. A background signal was measured in the absence of the p34-NEDD4-1 proteins, and a non-inhibiting signal was measured with addition of only a solvent (2% DMSO). […] Subsequently, inhibitory activity of the compound on p34-NEDD4-1 was calculated in %.

Assay [2] deals with PTEN (lipid phosphatase activity) in human colon cancer cell line SW620. Kind of assay: cells. The settings on record: Homo sapiens, SW-620, 48 h, compound 5 μM, PTEN immunoprecipitation, diC8-PIP3 substrate, Biomol Green, read-out: PTEN activity (relative fold @5 μM). Type of assay: cell-based.

Structures are written as SMILES.

Turning to `O=C(Nc1ccc(C(F)(F)F)cc1)N1CCN(Cc2ccc3[nH]ccc3c2)CC1` [Example 68], 10 µM produced 49.6% inhibition in assay [1]. Besides, in assay [2], the fold induction at 5 µM turned out to be 1.8.

In assay [1], `CC(NC(=O)C1CCN(Cc2ccc3[nH]ccc3c2)CC1)c1nc2ccccc2[nH]1` (centres unmarked) [Example 13] yielded an inhibition at 10 µM of 38.9%. Further, in assay [2], the fold induction at 5 µM was 3.2.

Take `O=C(NCc1nc2cc(F)c(F)cc2[nH]1)C1CCN(Cc2ccc3[nH]ccc3c2)CC1` [Example 16]: in assay [1], the inhibition at 10 µM stood at 47.2%. Besides, the fold induction at 5 µM in assay [2] was 1.5.

`O=C(NCc1cncs1)N1CCN(Cc2c[nH]c3ccc(Cl)cc23)CC1` [Example 85]: the inhibition at 10 µM in assay [1] worked out at 44%. The fold induction at 5 µM in assay [2] came to 1.9.

For `O=C(NCc1nc2ccc(F)cc2[nH]1)C1CCN(Cc2ccc3[nH]ccc3c2)CC1` [Example 14], 10 µM produced 44.1% inhibition in assay [1]. For the same compound, in assay [2], the fold induction at 5 µM is 3.8.

Take `O=C(C1CCN(Cc2c[nH]c3ccc(C(F)(F)F)cc23)CC1)N1CCn2cc(C(F)(F)F)nc2C1` [Example 30]: the inhibition at 10 µM in assay [1] was determined as 59.1%. For the same compound, in assay [2], the fold induction at 5 µM stood at 1.5.

In the case of `O=C(NCc1cncs1)N1CCN(Cc2c[nH]c3ccc(F)cc23)CC1` [Example 86], the inhibition at 10 µM in assay [1] was determined as 41.6%. For the same compound, in assay [2], the fold induction at 5 µM was 2.

Take `Cc1ccc2[nH]c(C(C)NC(=O)C3CCN(Cc4c[nH]c5ccc(C(F)(F)F)cc45)CC3)nc2c1` (centres unmarked) [Example 29]: the inhibition at 10 µM in assay [1] was found to be 59.1%. For the same compound, the fold induction at 5 µM in assay [2] was 2.2.

Turning to `O=C(NCc1nccs1)N1CCN(Cc2c[nH]c3ccc(F)cc23)CC1` [Example 81], in assay [1], the inhibition at 10 µM came out at 50.7%. In addition, in assay [2], the fold induction at 5 µM turned out to be 2.2.

On to `Cc1ccc2nc(CNC(=O)C3CCN(Cc4ccc5[nH]ccc5c4)CC3)[nH]c2c1` [Example 20], for which the inhibition at 10 µM in assay [1] worked out at 51.5%. Further, the fold induction at 5 µM in assay [2] came to 1.9.

In assay [1], `O=C(NCc1nccs1)N1CCN(Cc2ccc3[nH]ccc3c2)CC1` [Example 80] came in with an inhibition at 10 µM of 49.7%. In addition, in assay [2], the fold induction at 5 µM was determined as 2.1.

As for `CC(NC(=O)C1CCN(Cc2c[nH]c3ccc(C(F)(F)F)cc23)CC1)c1nc2ccccc2[nH]1` (centres unmarked) [Example 34], the inhibition at 10 µM in assay [1] was found to be 59.6%. Also, the fold induction at 5 µM in assay [2] was found to be 1.9.

In assay [1], `O=C(NCc1nc2cc(F)ccc2[nH]1)C1CCN(Cc2c[nH]c3ccc(C(F)(F)F)cc23)CC1` [Example 37] showed an inhibition at 10 µM of 39.4%. Also, the fold induction at 5 µM in assay [2] turned out to be 1.5.

`O=C(Nc1ccccc1)N1CCN(Cc2ccc3[nH]ccc3c2)CC1` [Example 77] returned an inhibition at 10 µM in assay [1] of 35.3%. In assay [2], the fold induction at 5 µM is 1.8.

As for `O=C(NC(Cc1ccccc1)c1nc2ccccc2[nH]1)C1CCN(Cc2c[nH]c3ccc(C(F)(F)F)cc23)CC1` (centres unmarked) [Example 33], in assay [1], the inhibition at 10 µM was determined as 41.2%. Further, the fold induction at 5 µM in assay [2] was 2.5.

Take `Cc1ccc2[nH]c(CNC(=O)N3CCN(Cc4c[nH]c5ccc(Cl)cc45)CC3)nc2c1` [Example 71]: 10 µM produced 33.7% inhibition in assay [1]. In addition, the fold induction at 5 µM in assay [2] was found to be 1.8.

As for `Cc1[nH]c2ccc(CN3CCN(C(=O)NCc4cncs4)CC3)cc2c1C` [Example 89], 10 µM produced 31.5% inhibition in assay [1]. For the same compound, in assay [2], the fold induction at 5 µM was determined as 2.

Compound `O=C(Nc1ncccn1)N1CCN(Cc2ccc3[nH]ccc3c2)CC1` [Example 73] returned an inhibition at 10 µM in assay [1] of 53.5%. The fold induction at 5 µM in assay [2] was determined as 2.1.

`O=C(NCc1nc2cc(F)c(F)cc2[nH]1)C1CCN(Cc2c[nH]c3ccc(C(F)(F)F)cc23)CC1` [Example 39] came in with an inhibition at 10 µM in assay [1] of 37.7%. Moreover, the fold induction at 5 µM in assay [2] is 1.6.

In the case of `O=C(NCc1cncs1)N1CCN(Cc2ccc3cc[nH]c3c2)CC1` [Example 87], in assay [1], the inhibition at 10 µM was determined as 48.7%. The fold induction at 5 µM in assay [2] is 1.9.

Compound `O=C(NCc1nc2ccccc2[nH]1)C1CCN(Cc2c[nH]c3ccc(Cl)cc23)CC1` [Example 45] registered an inhibition at 10 µM in assay [1] of 33.8%. Besides, the fold induction at 5 µM in assay [2] amounted to 2.8.

For `O=C(NCc1nc2ccccc2[nH]1)C1CCN(Cc2c[nH]c3ccccc23)CC1` [Example 61], in assay [1], the inhibition at 10 µM stood at 52.3%. For the same compound, the fold induction at 5 µM in assay [2] stood at 2.1.

On to `O=C(NCc1cncs1)C1CCN(Cc2c[nH]c3ccc(C(F)(F)F)cc23)CC1` [Example 31], for which at 10 µM the inhibition in assay [1] was 58.6%. Besides, the fold induction at 5 µM in assay [2] was determined as 1.5.

For the compound `O=C(NCc1nccs1)C1CCN(Cc2ccc3[nH]ccc3c2)CC1` [Example 19], the “FRET result (Inhibition % @10 μM)” value in assay [1] (compound 10 μM, 10 µM) was 32.1%. For the same compound, in assay [2], the fold induction at 5 µM was 2.5.

Take `O=C(NCc1nc2ccccc2o1)C1CCN(Cc2c[nH]c3ccc(C(F)(F)F)cc23)CC1` [Example 32]: 10 µM produced 61.1% inhibition in assay [1]. For the same compound, the fold induction at 5 µM in assay [2] came out at 1.8.

Regarding `O=C(NCc1cncs1)N1CCN(Cc2n[nH]c3ccccc23)CC1` [Example 83], the inhibition at 10 µM in assay [1] was determined as 41.3%. In assay [2], the fold induction at 5 µM amounted to 1.9.

In assay [1], `O=C(NCc1nc2cc(F)ccc2[nH]1)C1CCN(Cc2c[nH]c3ccc(Cl)cc23)CC1` [Example 6] returned an inhibition at 10 µM of 36.6%. The fold induction at 5 µM in assay [2] is 3.

Compound `O=C(C1CCN(Cc2ccc3[nH]ccc3c2)CC1)N1CCn2cc(C(F)(F)F)nc2C1` [Example 17] yielded an inhibition at 10 µM in assay [1] of 48%. For the same compound, in assay [2], the fold induction at 5 µM came out at 2.2.
